Results as given in article PMC8951016, “Computational Design and Biological Evaluation of Analogs of Lupin Peptide P5 Endowed with Dual PCSK9/HMG-CoAR Inhibiting Activity” (Pharmaceutics, 2022).

Test system: LDL uptake, HepG2 cells
Test: Fluorescent LDL uptake in HepG2 cells (peptide alone)
Type: cell-based, human
Settings: 50 µM, vs control, average ± SD, four independent experiments in duplicate
Description: HepG2 cells (3 × 10^4/well) were seeded in 96-well plates and kept in complete growth medium for 2 days before treatment. The third day, cells were washed with PBS and then starved overnight (O/N) in DMEM without FBS and antibiotics. After starvation, they were treated with 4.0 μg/mL PCSK9 and 4.0 μg/mL PCSK9 + P5 and P5 analogs peptides (50 µM), and vehicle (H2O) for 2 h with at 37 °C under 5% CO2 atmosphere. Fluorescent LDL-uptake was finally assessed following optimized protocol. See Supplementary Materials for further details.
PBS for 1.5 h at RT. LDLR primary antibody solution (1:3000 in 5% BSA in PBS, 25 µL/well) was incubated O/N at +4 °C. […] The reaction was stopped with 2 M H2SO4 and then the absorbance at 450 nm was measured using the microplate reader Synergy H1 (Winoo-ski, VT, USA). After the read, cells were stained by adding 1 X Janus Green stain, incubat-ing for 5 min at RT. […]
Afterward 100 µL 0.5 M HCl for well were added and incubated for 10 min. After 10 sec-onds shaking, the OD at 595 nm was measured using the microplate reader Synergy H1 […]
Fluorescent LDL Uptake. […] The degree of LDL uptake was measured using the Synergy H1 fluo-rescent plate reader (Winooski, VT, USA) (excitation and emission wavelengths 540 and 570 nm, respectively). Fluorescent LDL-uptake was finally assessed following optimized […]

In the case of “LILPKHSDAD [Peptide P5, natural peptide derived from a peptic lupin protein hydrolysate]”, the “ability of HepG2 cells to uptake extracellular LDL” value is reported as 203.8 ± 40.67%.
